Source: patent publication US20140309229A1, “METHODS FOR SELECTING AND TREATING CANCER IN PATIENTS WITH IGF-1R/IR INHIBITORS” (priority 2011, published 2014)

Legend:
Assay in all cases: MTS proliferation assay
Assay type in all cases: cell-based, human
RCM-1 = system: RCM-1
Procedure: (§1) Cell lines and in vitro cytotoxicity assay. Cells were maintained at 37° C. under standard cell culture conditions. Cells were plated at an optimized density for each cell line per well in 96-well microtiter FALCON® plates, incubated overnight, and then exposed to a serial dilution of drug. […] The results were expressed as an IC50, which is the drug concentration required to inhibit cell proliferation to 50% of that of untreated control cells. The mean IC50 and standard deviation (SD) from multiple tests for each cell line were calculated.
(§2) In vitro Cellular Proliferation Assays.

SNU-C1 = system: SNU-C1
Procedure: as §1, §2

SNU175 = system: SNU175
Procedure: as §1, §2

COLO-201 = system: COLO-201
Procedure: as §1, §2

SW403 = system: SW403
Procedure: as §1, §2

KM12C = system: KM12C
Procedure: as §1, §2

SW948 = system: SW948
Procedure: as §1, §2

SNU-C2B = system: SNU-C2B
Procedure: as §1, §2

HCT-116 = system: HCT-116
Procedure: as §1, §2

COLO-678 = system: COLO-678
Procedure: as §1, §2

SK-CO-1 = conditions: for IC50: Homo sapiens
Procedure: as §1, §2

NCI-H747 = system: NCI-H747
Procedure: as §1, §2

COLO-205 = system: COLO-205
Procedure: as §1, §2

CACO-2 = system: CACO-2
Procedure: as §1, §2

GP5D = system: GP5D
Procedure: as §1, §2

HCT8 = system: HCT8
Procedure: as §1, §2

SW480 = system: SW480
Procedure: as §1, §2

SW48 = system: SW48
Procedure: as §1, §2

SNU-61 = system: SNU-61
Procedure: as §1, §2

COLO741 = system: COLO741
Procedure: as §1, §2

LS-411N = system: LS-411N
Procedure: as §1, §2

HT55 = system: HT55
Procedure: as §1, §2

HCT-15 = system: HCT-15
Procedure: as §1, §2

LS-1034 = system: LS-1034
Procedure: as §1, §2

COLO-320-HSR = system: COLO-320-HSR
Procedure: as §1, §2

T84 = system: T84
Procedure: as §1, §2

RKO-RM13 = system: RKO-RM13
Procedure: as §1, §2

CaR-1 = system: CaR-1
Procedure: as §1, §2

MIP = system: MIP
Procedure: as §1, §2

C[C@@]1(C(=O)Nc2ccc(F)nc2)CCCN1c1nc(Nc2cc(C3CC3)n[nH]2)c2cccn2n1 [BMS-754807, (2S)-1-(4-((5-cyclopropyl-1H-pyrazol-3-yl)amino)pyrrolo[2,1-f][1,2,4]triazin-2-yl)-N-(6-fluoro-3-pyridinyl)-2-methyl-2-pyrrolidinecarboxamide]
IC50 (RCM-1; Homo sapiens, RCM-1, 72 h): 24 nM | Sensitivity Classes (RCM-1; RCM-1): S (“S” refers Sensitive) | IC50 (SNU-C1; Homo sapiens, SNU-C1, 72 h): 13 nM | Sensitivity Classes (SNU-C1; SNU-C1): S (“S” refers Sensitive) | Sensitivity to BMS-754807 (SNU-C1; SNUC1, preliminary panel of 45 CRC cell lines): Sensitive (a sensitive cell line was classified as one with an IC50 of ≦50 nmol/L) | IC50 (SNU175; Homo sapiens, 72 h): 3 nM | Sensitivity Classes (SNU175; SNU175): S (“S” refers Sensitive) | Sensitivity to BMS-754807 (COLO-201; COLO201, preliminary panel of 45 CRC cell lines): Resistant (resistant cell lines had IC50 values of >50 nmol/L) | Sensitivity Classes (COLO-201; COLO-201): R (“R” refers Resistant) | IC50 (COLO-201; Homo sapiens, COLO 201, 72 h): 2760 nM | IC50 (SW403; Homo sapiens, SW-403, 72 h): 34 nM | Sensitivity Classes (SW403; SW403): S (“S” refers Sensitive) | Sensitivity to BMS-754807 (SW403; SW403, preliminary panel of 45 CRC cell lines): Sensitive (a sensitive cell line was classified as one with an IC50 of ≦50 nmol/L) | Sensitivity Classes (KM12C): S (“S” refers Sensitive) | IC50 (KM12C; Homo sapiens, 72 h): 33 nM | Sensitivity to BMS-754807 (KM12C; preliminary panel of 45 CRC cell lines): Sensitive (a sensitive cell line was classified as one with an IC50 of ≦50 nmol/L) | IC50 (SW948; Homo sapiens, SW948, 72 h): 18 nM | Sensitivity Classes (SW948; SW948): S (“S” refers Sensitive) | Sensitivity to BMS-754807 (SW948; SW948, preliminary panel of 45 CRC cell lines): Sensitive (a sensitive cell line was classified as one with an IC50 of ≦50 nmol/L) | IC50 (SNU-C2B; Homo sapiens, SNU-C2B, 72 h): 1480 nM | Sensitivity Classes (SNU-C2B; SNU-C2B): R (“R” refers Resistant) | Sensitivity to BMS-754807 (SNU-C2B; SNUC2B, preliminary panel of 45 CRC cell lines): Resistant (resistant cell lines had IC50 values of >50 nmol/L) | Sensitivity to BMS-754807 (HCT-116; HCT116, preliminary panel of 45 CRC cell lines): Resistant (resistant cell lines had IC50 values of >50 nmol/L) | Sensitivity Classes (HCT-116; HCT-116): R (“R” refers Resistant) | IC50 (HCT-116; Homo sapiens, HCT-116, 72 h): 503 nM | Sensitivity Classes (COLO-678; COLO-678): R (“R” refers Resistant) | IC50 (COLO-678; Homo sapiens, COLO-678, 72 h): 192 nM | IC50 (SK-CO-1; SK-CO-1): 3 nM | IC50 (SK-CO-1; SK-CO-1, 72 h): 3 nM | Sensitivity Classes (SK-CO-1; SK-CO-1): S (“S” refers Sensitive) | Sensitivity to BMS-754807 (SK-CO-1; SK-CO-1, preliminary panel of 45 CRC cell lines): Sensitive (a sensitive cell line was classified as one with an IC50 of ≦50 nmol/L) | IC50 (NCI-H747; Homo sapiens, NCI-H747, 72 h): 1160 nM | Sensitivity Classes (NCI-H747; NCI-H747): R (“R” refers Resistant) | Sensitivity to BMS-754807 (NCI-H747; NCI-H747, preliminary panel of 45 CRC cell lines): Resistant (resistant cell lines had IC50 values of >50 nmol/L) | Sensitivity to BMS-754807 (COLO-205; COLO205, preliminary panel of 45 CRC cell lines): Intermediate (remaining 30 cell lines classified as Intermediate or resistant) | Sensitivity Classes (COLO-205; COLO-205): R (“R” refers Resistant) | IC50 (COLO-205; Homo sapiens, COLO 205, 72 h): 242 nM | Sensitivity Classes (CACO-2; CACO-2): R (“R” refers Resistant) | Sensitivity to BMS-754807 (CACO-2; CACO-2, preliminary panel of 45 CRC cell lines): Resistant (resistant cell lines had IC50 values of >50 nmol/L) | IC50 (CACO-2; Homo sapiens, Caco-2, 72 h): 5500 nM | Sensitivity Classes (GP5D; GP5D): R (“R” refers Resistant) | IC50 (GP5D; Homo sapiens, GP5d, 72 h): 252 nM | Sensitivity Classes (HCT8; HCT8): R (“R” refers Resistant) | Sensitivity to BMS-754807 (HCT8; HCT8, preliminary panel of 45 CRC cell lines): Resistant (resistant cell lines had IC50 values of >50 nmol/L) | IC50 (HCT8; Homo sapiens, HCT-8, 72 h): 4860 nM | IC50 (SW480; Homo sapiens, SW480, 72 h): 4890 nM | Sensitivity Classes (SW480; SW480): R (“R” refers Resistant) | Sensitivity to BMS-754807 (SW480; SW480, preliminary panel of 45 CRC cell lines): Resistant (resistant cell lines had IC50 values of >50 nmol/L) | IC50 (SW48; Homo sapiens, SW48, 72 h): 13 nM | Sensitivity Classes (SW48; SW48): S (“S” refers Sensitive) | Sensitivity to BMS-754807 (SW48; SW48, preliminary panel of 45 CRC cell lines): Sensitive (a sensitive cell line was classified as one with an IC50 of ≦50 nmol/L) | IC50 (SNU-61; Homo sapiens, 72 h): 35 nM | Sensitivity Classes (SNU-61; SNU-61): S (“S” refers Sensitive) | Sensitivity Classes (COLO741; COLO741): R (“R” refers Resistant) | IC50 (COLO741; Homo sapiens, COLO-741, 72 h): 1350 nM | IC50 (LS-411N; Homo sapiens, LS-411N, 72 h): 99 nM | Sensitivity to BMS-754807 (LS-411N; LS411N, preliminary panel of 45 CRC cell lines): Intermediate (remaining 30 cell lines classified as Intermediate or resistant) | Sensitivity Classes (LS-411N; LS-411N): R (“R” refers Resistant) | Sensitivity Classes (HT55; HT55): S (“S” refers Sensitive) | IC50 (HT55; Homo sapiens, HT55, 72 h): 3 nM | Sensitivity to BMS-754807 (HCT-15; HCT15, preliminary panel of 45 CRC cell lines): Resistant (resistant cell lines had IC50 values of >50 nmol/L) | Sensitivity Classes (HCT-15; HCT-15): R (“R” refers Resistant) | IC50 (HCT-15; Homo sapiens, HCT-15, 72 h): 757 nM | IC50 (LS-1034; Homo sapiens, LS-1034, 72 h): 44 nM | Sensitivity to BMS-754807 (LS-1034; LS1034, preliminary panel of 45 CRC cell lines): Sensitive (a sensitive cell line was classified as one with an IC50 of ≦50 nmol/L) | Sensitivity Classes (LS-1034; LS-1034): S (“S” refers Sensitive) | Sensitivity to BMS-754807 (COLO-320-HSR; COLO320HSR, preliminary panel of 45 CRC cell lines): Sensitive (a sensitive cell line was classified as one with an IC50 of ≦50 nmol/L) | Sensitivity Classes (COLO-320-HSR; COLO-320-HSR): S (“S” refers Sensitive) | IC50 (COLO-320-HSR; Homo sapiens, COLO-320-HSR, 72 h): 35 nM | IC50 (T84; Homo sapiens, T84, 72 h): 5200 nM | Sensitivity Classes (T84; T84): R (“R” refers Resistant) | Sensitivity to BMS-754807 (T84; T84, preliminary panel of 45 CRC cell lines): Resistant (resistant cell lines had IC50 values of >50 nmol/L) | IC50 (RKO-RM13; Homo sapiens, 72 h): 727 nM | Sensitivity Classes (RKO-RM13; RKO-RM13): R (“R” refers Resistant) | Sensitivity to BMS-754807 (RKO-RM13; RKO-RM13, preliminary panel of 45 CRC cell lines): Resistant (resistant cell lines had IC50 values of >50 nmol/L) | Sensitivity Classes (CaR-1; CaR-1): R (“R” refers Resistant) | IC50 (CaR-1; Homo sapiens, CaR-1, 72 h): 375 nM | Sensitivity Classes (MIP): R (“R” refers Resistant) | IC50 (MIP; Homo sapiens, 72 hrs): 4360 nM
